Patent US20260242416A1, “ANTIMICROBIAL PEPTIDES” (priority 2023, published 2026)
≈ marks a conversion by molar mass, not a printed value. Where a SMILES comes first, the peptide text is derived from it.

Experiments:
E. coli ATCC 25922 = type: cell-based, Escherichia coli; conditions: ATCC 25922
Summary of the method: (§1)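 CLSI broth microdilution adapted for cationic peptides, in Mueller-Hinton broth, inoculum 2-8×10^5 cfu/mL. Peptides serially diluted from 128 to 0.5 μg/mL in polypropylene plates, incubated 20-24 h at 37° C. MIC = lowest concentration without visible growth.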

S. aureus ATCC 29213 = type: cell-based, Staphylococcus aureus; conditions: ATCC 29213
Summary of the method: as §1

[1] = system: E. coli ATCC 25922, Salmonella Enteritidis, S. aureus ATCC 29213; test: Broth microdilution, panel result (at least one / all strains), Example 2; type: cell-based; set-up: key to inhibitory activity (asterisk): *Indicates inhibitory activity; conditions: Table 14; against at least one of E. coli ATCC 25922, Salmonella Enteritidis, S. aureus ATCC 29213
Description: The antimicrobial activity of the putative AMPs was determined by a broth microdilution assay as described by the Clinical and Laboratory Standards Institute, with the published adaptations for testing of cationic peptides. Escherichia coli 25922 and Staphylococcus aureus 29213 isolates were purchased from the American Type Culture Collection (ATCC; Manassas, VA, USA). A human clinical isolate of Salmonella enterica serovar Enteritidis was provided by the BC Centre for Disease Control. Bacteria from stocks stored at −80° C. were streaked onto nonselective Columbia blood agar with 5% sheep blood (Oxoid) and incubated overnight at 37° C. Next, 2-4 colonies were streaked onto a new agar plate to ensure uniform health of colonies used in the broth microdilution assay. Isolated colonies were suspended in MHB and the optical density was measured with a spectrophotometer to create an initial inoculum concentration of approximately 1×10^8 cfu/mL. The inoculum was diluted 1:250 to a final concentration of 2-8×10^5 cfu/mL, which was confirmed by performing a Total Viability Count (TVC). The TVC consisted of plating a 1:1000 dilution of the final inoculum on nonselective media and was also used to confirm the health and purity of the inoculum in each trial.
Lyophilized 80 μg peptide aliquots synthesized by GenScript (Piscataway, NJ, USA) were resuspended to 1.28 mg/mL with UltraPure water (Thermo Fisher Scientific, Waltham, MA, USA) and serially diluted in polypropylene 96-well microtiter plates (Greiner Bio-One #650261, Kremsmunster, Austria) from 128 down to 0.5 μg/mL. Two columns per plate were reserved for growth and sterility controls. Inoculum was added to the wells containing the peptide and the growth control. Plates were incubated for 20-24 h at 37° C. The minimum inhibitory concentration (MIC) was determined as the lowest peptide concentration where there was no visible bacterial growth.

[2] = system: Salmonella enterica serovar Enteritidis (human clinical isolate); type: cell-based; conditions: serovar Enteritidis (human clinical isolate)
Summary of the method: as §1

SMILES	MIC (ug/mL) E. coli (E. coli ATCC 25922)	MIC (ug/mL) S. aureus (S. aureus ATCC 29213)	inhibitory activity (asterisk) [1]	MIC (ug/mL) S. Enteritidis [2]
CC[C@H](C)[C@H](NC(=O)[C@@H]1CCCN1C(=O)[C@H](CS)NC(=O)[C@H](C)NC(=O)[C@@H](N)Cc1ccccc1)C(=O)NCC(=O)N[C@@H](Cc1ccccc1)C(=O)N[C@@H](Cc1ccccc1)C(=O)N[C@@H](CCCNC(=N)N)C(=O)N[C@@H](CC(C)C)C(=O)N[C@@H](CCCCN)C(=O)N[C@@H](CCCNC(=N)N)C(=O)O [CaCa1, FACPIGFFRLKR] (H-FACPIGFFRLKR-OH; N-terminus and C-terminus assumed)	128/>128/>128 ug/mL	128/>128/>128 ug/mL	826.* FACPIGFFRLKR	128/>128/>128 ug/mL
CC[C@H](C)[C@H](NC(=O)CNC(=O)[C@H](C)NC(=O)[C@@H](NC(=O)[C@@H](NC(=O)[C@H](CO)NC(=O)[C@H](C)NC(=O)[C@@H](NC(=O)[C@H](CCCCN)NC(=O)[C@H](CCCCN)NC(=O)[C@H](C)NC(=O)[C@@H](NC(=O)[C@H](CC(=O)O)NC(=O)[C@H](CC(C)C)NC(=O)[C@H](Cc1c[nH]c2ccccc12)NC(=O)CN)[C@@H](C)CC)C(C)C)C(C)C)C(C)C)C(=O)N[C@H](C(=O)N[C@@H](CCCCN)C(=O)N[C@@H](CCCNC(=N)N)C(=O)O)C(C)C [LiVe1, GWLDIAKKVASVVAGIVKR] (H-GWLDIAKKVASVVAGIVKR-OH; N-terminus and C-terminus assumed)	4 to 8 µg/mL	16 to 32 µg/mL	37.* GWLDIAKKVASVVAGIVKR	32 µg/mL (≈ 15.9 µM)
CC[C@H](C)[C@H](NC(=O)[C@H](CC(=O)O)NC(=O)[C@H](CC(C)C)NC(=O)[C@H](Cc1c[nH]c2ccccc12)NC(=O)CN)C(=O)N[C@@H](C)C(=O)N[C@@H](CCCCN)C(=O)N[C@@H](CCCCN)C(=O)N[C@H](C(=O)N[C@@H](C)C(=O)N[C@@H](CO)C(=O)N[C@H](C(=O)N[C@H](C(=O)N[C@@H](C)C(=O)NCC(=O)N[C@@H](CC(C)C)C(=O)NCC(=O)N[C@@H](CCCCN)C(=O)N[C@@H](CCCNC(=N)N)C(=O)O)C(C)C)C(C)C)C(C)C [LiVe2, GWLDIAKKVASVVAGLGKR] (H-GWLDIAKKVASVVAGLGKR-OH; N-terminus and C-terminus assumed)	4 to 8 µg/mL	64 µg/mL (≈ 32.5 µM)	40.* GWLDIAKKVASVVAGLGKR	64 to 128 µg/mL
CC(C)C[C@H](NC(=O)[C@H](CCCCN)NC(=O)[C@H](Cc1c[nH]c2ccccc12)NC(=O)[C@H](CC(C)C)NC(=O)[C@@H](NC(=O)[C@H](CC(C)C)NC(=O)[C@H](Cc1ccccc1)NC(=O)[C@H](CC(C)C)NC(=O)[C@@H](N)CCCCN)[C@@H](C)O)C(=O)N[C@@H](CCCCN)C(=O)N[C@@H](CCCNC(=N)N)C(=O)O [NaVi3, KLFLTLWKLKR] (H-KLFLTLWKLKR-OH; N-terminus and C-terminus assumed)	8 to 16 µg/mL	128 µg/mL (≈ 88.5 µM)	895.* KLFLTLWKLKR	64 µg/mL (≈ 44.3 µM)
CC[C@H](C)[C@H](NC(=O)CNC(=O)[C@H](CO)NC(=O)[C@H](CC(C)C)NC(=O)[C@H](CC(C)C)NC(=O)CN)C(=O)N[C@@H](CC(C)C)C(=O)NCC(=O)N[C@@H](C)C(=O)NCC(=O)N[C@@H](CCCCN)C(=O)N[C@@H](CCCCN)C(=O)N[C@H](C(=O)N[C@H](C(=O)N[C@@H](CS)C(=O)NCC(=O)N[C@@H](Cc1ccccc1)C(=O)N[C@@H](CO)C(=O)NCC(=O)N[C@@H](CC(C)C)C(=O)N[C@@H](CS)C(=O)O)C(C)C)[C@@H](C)CC [OdMa1] (H-GLLSGILGAGKKIVCGFSGLC-OH; N-terminus and C-terminus assumed)	8 to 16 µg/mL	64 µg/mL (≈ 32.1 µM)	71.* GLLSGILGAGKKIVCGFSGLC	128 µg/mL (≈ 64.2 µM)
CC[C@H](C)[C@H](NC(=O)[C@H](CCCCN)NC(=O)[C@H](CCCCN)NC(=O)CNC(=O)[C@H](C)NC(=O)CNC(=O)[C@H](CC(C)C)NC(=O)[C@H](CC(C)C)NC(=O)CNC(=O)[C@H](CO)NC(=O)[C@H](CC(C)C)NC(=O)[C@H](CC(C)C)NC(=O)CN)C(=O)N[C@H](C(=O)N[C@@H](CS)C(=O)NCC(=O)N[C@@H](CC(C)C)C(=O)N[C@@H](CO)C(=O)NCC(=O)N[C@@H](CCSC)C(=O)N[C@@H](CS)C(=O)O)C(C)C [OdMa3] (H-GLLSGLLGAGKKIVCGLSGMC-OH; N-terminus and C-terminus assumed)	8 to 16 µg/mL	32 µg/mL (≈ 16.2 µM)	59.* GLLSGLLGAGKKIVCGLSGMC	64 µg/mL (≈ 32.4 µM)
CC[C@H](C)[C@H](NC(=O)[C@@H](N)C(C)C)C(=O)N1CCC[C@H]1C(=O)N[C@@H](Cc1ccccc1)C(=O)N[C@H](C(=O)N[C@@H](C)C(=O)N[C@@H](CO)C(=O)N[C@H](C(=O)N[C@@H](C)C(=O)N[C@@H](C)C(=O)N[C@@H](CCC(=O)O)C(=O)N[C@@H](CCSC)C(=O)N[C@@H](CCSC)C(=O)N[C@@H](Cc1c[nH]cn1)C(=O)N[C@@H](Cc1c[nH]cn1)C(=O)N[C@H](C(=O)N[C@@H](Cc1ccc(O)cc1)C(=O)N[C@@H](CS)C(=O)N[C@@H](C)C(=O)N[C@@H](C)C(=O)N[C@@H](CO)C(=O)N[C@@H](CCCCN)C(=O)N[C@@H](CCCNC(=N)N)C(=O)N[C@@H](CS)C(=O)N[C@@H](CCCCN)C(=O)N[C@@H](CC(N)=O)C(=O)O)C(C)C)C(C)C)C(C)C [PeNi7] (H-VIPFVASVAAEMMHHVYCAASKRCKN-OH; N-terminus and C-terminus assumed)			1088.* VIPFVASVAAEMMHHVYCAASKRCKN	
CC[C@H](C)[C@H](NC(=O)CN)C(=O)N[C@@H](CC(C)C)C(=O)N[C@@H](CC(C)C)C(=O)N[C@@H](CC(N)=O)C(=O)N[C@H](C(=O)N[C@@H](CC(C)C)C(=O)N[C@@H](CCCCN)C(=O)NCC(=O)N[C@@H](C)C(=O)N[C@@H](C)C(=O)N[C@@H](CCCCN)C(=O)N[C@@H](CC(N)=O)C(=O)N[C@H](C(=O)N[C@@H](C)C(=O)NCC(=O)N[C@H](C(=O)N[C@@H](CC(C)C)C(=O)N[C@@H](CC(C)C)C(=O)N[C@@H](CC(=O)O)C(=O)N[C@@H](CCCCN)C(=O)N[C@@H](CC(C)C)C(=O)N[C@@H](CCCCN)C(=O)N[C@@H](CS)C(=O)N[C@@H](CCCCN)C(=O)N[C@H](C(=O)N[C@H](C(=O)NCC(=O)NCC(=O)N[C@@H](CS)C(=O)O)[C@@H](C)O)[C@@H](C)CC)C(C)C)C(C)C)[C@@H](C)O [PeNi8] (H-GILLNTLKGAAKNVAGVLLDKLKCKITGGC-OH; N-terminus and C-terminus assumed)			1097.* GILLNTLKGAAKNVAGVLLDKLKCKITGGC	
CC[C@H](C)[C@H](NC(=O)[C@H](CO)NC(=O)[C@@H]1CCCN1C(=O)[C@H](CC(C)C)NC(=O)[C@@H](NC(=O)[C@H](CCCCN)NC(=O)[C@H](C)NC(=O)[C@H](C)NC(=O)[C@H](CC(C)C)NC(=O)CNC(=O)[C@H](C)NC(=O)[C@@H](NC(=O)[C@@H](NC(=O)[C@@H]1CCCN1C(=O)[C@H](CC(C)C)NC(=O)[C@@H](N)Cc1ccccc1)C(C)C)C(C)C)C(C)C)C(=O)N[C@H](C(=O)N[C@@H](CS)C(=O)N[C@@H](C)C(=O)N[C@H](C(=O)N[C@H](C(=O)N[C@@H](CCCCN)C(=O)N[C@@H](CCCCN)C(=O)N[C@@H](CS)C(=O)O)[C@@H](C)O)C(C)C)[C@@H](C)CC [RaCa15] (H-FLPVVAGLAAKVLPSIICAVTKKC-OH; N-terminus and C-terminus assumed)			1098.* FLPVVAGLAAKVLPSIICAVTKKC	
CC[C@H](C)[C@H](NC(=O)[C@H](CO)NC(=O)[C@@H]1CCCN1C(=O)[C@H](CC(C)C)NC(=O)[C@@H](NC(=O)[C@H](CCCCN)NC(=O)[C@H](C)NC(=O)[C@H](C)NC(=O)[C@H](CC(C)C)NC(=O)CNC(=O)[C@H](C)NC(=O)[C@@H](NC(=O)[C@@H](NC(=O)[C@@H]1CCCN1C(=O)[C@H](CC(C)C)NC(=O)[C@H](Cc1ccccc1)NC(=O)[C@H](CCCNC(=N)N)NC(=O)[C@H](CCC(N)=O)NC(=O)[C@H](CCC(=O)O)NC(=O)[C@@H](N)CCC(=O)O)C(C)C)C(C)C)C(C)C)C(=O)N[C@H](C(=O)N[C@@H](CS)C(=O)N[C@@H](C)C(=O)N[C@H](C(=O)N[C@H](C(=O)N[C@@H](CCCCN)C(=O)N[C@@H](CCCCN)C(=O)N[C@@H](CS)C(=O)O)[C@@H](C)O)C(C)C)[C@@H](C)CC [RaSy2] (H-EEQRFLPVVAGLAAKVLPSIICAVTKKC-OH; N-terminus and C-terminus assumed)			673.* EEQRFLPVVAGLAAKVLPSIICAVTKKC	
